Values joined by “and” are separate entries in the source; they are usually repeats but may differ in a detail not shown here. Equal values may be shown once. Read-outs that look alike come from different tables or passages of the source.
Tests used:
S. typhimurium TA98 [1] = assay: Ames test (Salmonella/microsome mutagenicity assay), strain TA98; format: cell-based, Salmonella typhimurium
Experimental: (§1) The study was carried out according to the indications of Maron and Ames, as well as with the recommendations expressed by the OCDE with respect to this assay. The Salmonella typhimurium strains used were TA98, TA100, TA102, TA1535, and TA1537.
(§2) In this case, the concentrations used were 10, 50, 100, 500, and 1000 µg/plate. Both studies were performed without and with the inclusion of the S9 fraction. In the last case, the S9 fraction was mixed with 5 mM glucose-6 phosphate, 4 mM NADPH, 8 mM MgCl2, and phosphate buffer at pH 7.4. The reaction mixture with or without S9 was placed in Petri dishes containing minimum agar plus glucose and Vogel–Bonner salts and left at 37 °C for 48 h. Finally, the number of revertant colonies (His^+) in each treatment was counted. Importantly, we used different mutagens as positive controls depending on the strain.
(§3) The toxicity of the tested agents was assessed by observing background bacterial growth on minimal agar plates due to traces of histidine in the medium.

S. typhimurium TA100 = assay: Ames test (Salmonella/microsome mutagenicity assay), strain TA100; format: cell-based, Salmonella typhimurium
Experimental: as §1, §2, §3

S. typhimurium TA102 = assay: Ames test (Salmonella/microsome mutagenicity assay), strain TA102; format: cell-based, Salmonella typhimurium
Experimental: as §1, §2, §3

S. typhimurium TA1537 = assay: Ames test (Salmonella/microsome mutagenicity assay), strain TA1537; format: cell-based, Salmonella typhimurium
Experimental: as §1, §2, §3

S. typhimurium TA1535 = format: cell-based, Salmonella typhimurium; conditions: positive mutagen
Experimental: as §1, §2, §3

human CYP1A1 [2] = target: T1, human CYP1A1 (Homo sapiens, UniProt P04798); conditions: nonlinear regression and Lineweaver–Burk plots
T1 sequence (P04798 1-512): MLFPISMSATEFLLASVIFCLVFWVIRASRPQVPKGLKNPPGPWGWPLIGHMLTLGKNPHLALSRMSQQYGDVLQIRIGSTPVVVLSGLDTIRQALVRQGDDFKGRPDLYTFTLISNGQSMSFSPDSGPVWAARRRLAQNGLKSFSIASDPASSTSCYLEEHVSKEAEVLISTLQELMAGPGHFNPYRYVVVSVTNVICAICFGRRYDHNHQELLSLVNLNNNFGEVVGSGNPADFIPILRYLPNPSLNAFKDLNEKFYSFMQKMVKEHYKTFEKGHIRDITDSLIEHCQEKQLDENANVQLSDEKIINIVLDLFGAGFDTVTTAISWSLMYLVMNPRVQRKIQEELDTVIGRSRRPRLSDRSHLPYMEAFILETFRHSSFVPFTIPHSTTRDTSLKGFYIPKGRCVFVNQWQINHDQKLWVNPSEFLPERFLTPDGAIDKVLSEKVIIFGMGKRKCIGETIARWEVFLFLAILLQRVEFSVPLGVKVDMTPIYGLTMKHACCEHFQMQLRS
Experimental: (§4) The protein content was estimated via the Bradford assay.
(§5) To determine the type of inhibition, an incubation volume of 200 μL containing human CYP1A1 bacterial membranes (80 μg) and 0.5 mM NADPH in buffer pH 7.6 (50 mM Tris–HCl and 25 mM MgCl2) was used.

mouse bone marrow = conditions: cited from earlier work
[3] = tested on: Salmonella typhimurium strains TA98, TA100, TA102, TA1535, and TA1537; assay: Ames test, overall verdict over the five strains; format: cell-based
Experimental: as §1, §2, §3

rat hepatocytes = conditions: cited from earlier work
S. typhimurium TA98 [4] = conditions: strain TA98; cited from earlier work
[5] = tested on: strain TA98 of S. typhimurium; conditions: cited from earlier work
human CYP1A1 [6] = target: T1, human CYP1A1; assay: biochemical
Experimental: as §4, §5

Salmonella typhimurium = conditions: cited from earlier work

For O=[N+]([O-])c1ccc2c(c1)Cc1ccccc1-2 [2-nitrofluorene, reference compound], the “His^+ Revertants” value (S. typhimurium TA98 [1]; positive mutagen, TA98 (−S9), 5 µg) was 2419 ± 169 ^1 and 2070 ± 44 ^1 and the “His^+ Revertants” value (S. typhimurium TA100; positive mutagen, TA100 (−S9), 5 µg) was 1909 ± 428 ^1.

In the case of Nc1ccc2cc3ccccc3cc2c1 [aminoanthracene, 2-aminoanthracene, reference compound], the “His^+ Revertants” value (S. typhimurium TA102; positive mutagen, TA102 (+S9), 5 µg) is reported as 2080 ± 27 ^7, the “His^+ Revertants” value (S. typhimurium TA1537; positive mutagen, TA1537 (+S9), 2 µg) is reported as 120 ± 12 ^4 and the “His^+ Revertants” value (S. typhimurium TA1535; TA1535 (+S9), 2 µg) is reported as 371 ± 20 ^4.

With CC1=NN(c2ccc([N+](=O)[O-])cc2)C(=O)C1[N+](=O)[O-] (stereo not drawn) [picrolonic acid, reference compound] the “His^+ Revertants” value (S. typhimurium TA1537; positive mutagen, TA1537 (−S9), 100 µg) was 63 ± 2 ^5.

In the case of C=CCc1ccc2c(c1)OCO2 [safrole, 5-(2-propenyl)-1,3-benzodioxone], the type of inhibition (human CYP1A1 [2]) is given as “competitive inhibition”, the “mutagenicity, mouse bone marrow micronuclei assay” value (mouse bone marrow) is given as “negative” and the “toxicity (background bacterial growth)” value ([3]; tested concentrations) is given as “absence of toxicity”. For the same compound, the mutagenic potential ([3]; with and without S9) was “absence of a mutagenic effect”, the “DNA adducts and chromosomal aberrations” value (rat hepatocytes) was “induction of DNA adducts and chromosomal aberrations” and the gene mutations (rat hepatocytes) was “no gene mutations”. For the same compound, the mutagenicity (S. typhimurium TA98 [4]) was “no mutagenicity”, the “His^+ Revertants” value (S. typhimurium TA98 [1]; TA98 (+S9), 10 μg/plate) was 20 ± 2 and the “His^+ Revertants” value (S. typhimurium TA98 [1]; TA98 (+S9), 50 μg/plate) was 34 ± 8. For the same compound, the “His^+ Revertants” value (S. typhimurium TA98 [1]; TA98 (+S9), 100 μg/plate) was 38 ± 9, the “His^+ Revertants” value (S. typhimurium TA98 [1]; TA98 (+S9), 500 μg/plate) was 26 ± 9 and the “His^+ Revertants” value (S. typhimurium TA98 [1]; TA98 (+S9), 1000 μg/plate) was 36 ± 7. For the same compound, the “His^+ Revertants” value (S. typhimurium TA98 [1]; TA98 (−S9), 10 μg/plate) was 19 ± 3, the “His^+ Revertants” value (S. typhimurium TA98 [1]; TA98 (−S9), 50 μg/plate) was 22 ± 7 and the “His^+ Revertants” value (S. typhimurium TA98 [1]; TA98 (−S9), 100 μg/plate) was 27 ± 4. The “His^+ Revertants” value (S. typhimurium TA98 [1]; TA98 (−S9), 500 μg/plate) was 18 ± 3, the “His^+ Revertants” value (S. typhimurium TA98 [1]; TA98 (−S9), 1000 μg/plate) was 22 ± 9 and the “His^+ Revertants” value (S. typhimurium TA102; TA102 (+S9), 10 μg/plate) was 573 ± 6. For the same compound, the “His^+ Revertants” value (S. typhimurium TA102; TA102 (+S9), 50 μg/plate) was 558 ± 14, the “His^+ Revertants” value (S. typhimurium TA102; TA102 (+S9), 100 μg/plate) was 520 ± 10 and the “His^+ Revertants” value (S. typhimurium TA102; TA102 (+S9), 500 μg/plate) was 477 ± 17. For the same compound, the “His^+ Revertants” value (S. typhimurium TA102; TA102 (+S9), 1000 μg/plate) was 504 ± 12, the “His^+ Revertants” value (S. typhimurium TA102; TA102 (−S9), 10 μg/plate) was 502 ± 4 and the “His^+ Revertants” value (S. typhimurium TA102; TA102 (−S9), 50 μg/plate) was 489 ± 19. The “His^+ Revertants” value (S. typhimurium TA102; TA102 (−S9), 100 μg/plate) was 484 ± 13, the “His^+ Revertants” value (S. typhimurium TA102; TA102 (−S9), 500 μg/plate) was 451 ± 18 and the “His^+ Revertants” value (S. typhimurium TA102; TA102 (−S9), 1000 μg/plate) was 512 ± 40. The “His^+ Revertants” value (S. typhimurium TA100; TA100 (+S9), 10 μg/plate) was 97 ± 18, the “His^+ Revertants” value (S. typhimurium TA100; TA100 (+S9), 50 μg/plate) was 108 ± 18 and the “His^+ Revertants” value (S. typhimurium TA100; TA100 (+S9), 100 μg/plate) was 105 ± 9. The “His^+ Revertants” value (S. typhimurium TA100; TA100 (+S9), 500 μg/plate) was 108 ± 9, the “His^+ Revertants” value (S. typhimurium TA100; TA100 (+S9), 1000 μg/plate) was 102 ± 9 and the “His^+ Revertants” value (S. typhimurium TA100; TA100 (−S9), 10 μg/plate) was 110 ± 16. The “His^+ Revertants” value (S. typhimurium TA100; TA100 (−S9), 50 μg/plate) was 120 ± 17, the “His^+ Revertants” value (S. typhimurium TA100; TA100 (−S9), 100 μg/plate) was 107 ± 10 and the “His^+ Revertants” value (S. typhimurium TA100; TA100 (−S9), 500 μg/plate) was 100 ± 17. For the same compound, the “His^+ Revertants” value (S. typhimurium TA100; TA100 (−S9), 1000 μg/plate) was 112 ± 6, the “antimutagenic potential against heterocyclic aromatic amines” value [5] was “strong antimutagenic potential” and the “His^+ Revertants” value (S. typhimurium TA1537; TA1537 (+S9), 10 μg/plate) was 12 ± 3. The “His^+ Revertants” value (S. typhimurium TA1537; TA1537 (+S9), 50 μg/plate) was 10 ± 3, the “His^+ Revertants” value (S. typhimurium TA1537; TA1537 (+S9), 100 μg/plate) was 10 ± 1 and the “His^+ Revertants” value (S. typhimurium TA1537; TA1537 (+S9), 500 μg/plate) was 11 ± 4. The “His^+ Revertants” value (S. typhimurium TA1537; TA1537 (+S9), 1000 μg/plate) was 9 ± 3, the “His^+ Revertants” value (S. typhimurium TA1537; TA1537 (−S9), 10 μg/plate) was 10 ± 3 and the “His^+ Revertants” value (S. typhimurium TA1537; TA1537 (−S9), 50 μg/plate) was 14 ± 4. For the same compound, the “His^+ Revertants” value (S. typhimurium TA1537; TA1537 (−S9), 100 μg/plate) was 10 ± 1, the “His^+ Revertants” value (S. typhimurium TA1537; TA1537 (−S9), 500 μg/plate) was 12 ± 3 and the “His^+ Revertants” value (S. typhimurium TA1537; TA1537 (−S9), 1000 μg/plate) was 11 ± 4. The Ki (human CYP1A1 [6]) was 380 nM and the “mutagenicity, Ames test” value (Salmonella typhimurium) was “negative”.

In the case of [N-]=[N+]=[N-].[Na+] [sodium azide], the “His^+ Revertants” value (S. typhimurium TA1535; TA1535 (−S9), 1 µg) is reported as 481 ± 28 ^3.
